# Measurements reported in patent US8778941B2, “TRPM8 antagonists and their use in treatments” (AMGEN Inc., priority 2011, dated 2014).
# Molecular target: T1, human TRPM8 (Homo sapiens, UniProt Q7Z2W7)
# T1 construct: expressed in transfected cells; host or cells: Chinese hamster ovary (CHO) cells, T-REx tetracycline-inducible expression system (Invitrogen), co-transfected with pcDNA3.1 jellyfish aequorin
# Assay: Luminescence readout assay for measuring intracellular calcium (aequorin), hTRPM8 antagonism
# Type: cell-based
# Conditions: CHO cell line expressing human TRPM8 and aequorin; activation by icilin, L-menthol or cold buffer (table does not say which)
# T1 sequence (Q7Z2W7 whole entry): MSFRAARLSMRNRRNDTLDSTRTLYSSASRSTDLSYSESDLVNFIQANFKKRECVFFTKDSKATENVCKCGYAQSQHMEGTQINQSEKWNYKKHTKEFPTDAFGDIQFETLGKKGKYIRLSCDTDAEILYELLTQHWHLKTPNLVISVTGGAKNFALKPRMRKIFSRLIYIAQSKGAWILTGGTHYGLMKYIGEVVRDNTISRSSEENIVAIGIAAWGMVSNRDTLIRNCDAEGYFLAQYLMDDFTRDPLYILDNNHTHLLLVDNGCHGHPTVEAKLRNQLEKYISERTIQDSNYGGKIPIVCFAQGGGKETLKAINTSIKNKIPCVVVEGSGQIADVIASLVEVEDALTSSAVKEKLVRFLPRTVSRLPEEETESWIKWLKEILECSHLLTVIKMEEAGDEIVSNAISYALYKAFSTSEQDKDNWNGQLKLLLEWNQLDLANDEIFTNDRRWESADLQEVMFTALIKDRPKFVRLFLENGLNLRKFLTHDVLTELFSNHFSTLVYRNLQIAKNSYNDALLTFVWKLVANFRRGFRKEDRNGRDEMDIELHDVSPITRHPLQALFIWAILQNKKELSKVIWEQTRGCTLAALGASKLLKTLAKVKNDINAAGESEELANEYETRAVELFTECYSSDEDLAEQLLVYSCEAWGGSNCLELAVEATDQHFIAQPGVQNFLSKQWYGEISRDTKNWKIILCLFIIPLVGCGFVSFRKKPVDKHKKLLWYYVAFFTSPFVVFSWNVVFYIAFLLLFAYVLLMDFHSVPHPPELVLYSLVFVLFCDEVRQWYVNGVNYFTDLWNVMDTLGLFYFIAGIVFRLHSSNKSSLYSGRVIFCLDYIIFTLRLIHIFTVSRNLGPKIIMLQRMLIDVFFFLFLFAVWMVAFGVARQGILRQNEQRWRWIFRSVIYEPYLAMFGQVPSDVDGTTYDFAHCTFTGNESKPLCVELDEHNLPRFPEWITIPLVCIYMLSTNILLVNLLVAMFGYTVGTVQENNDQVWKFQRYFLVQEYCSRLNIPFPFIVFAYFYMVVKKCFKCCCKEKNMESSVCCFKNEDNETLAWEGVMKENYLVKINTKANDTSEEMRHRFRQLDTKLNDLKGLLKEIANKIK
row,IC50,SMILES
1,115 nM,"CCCC[C@H](C)NC(=O)N[C@@H](c1ccc(C(F)(F)F)cc1)c1ncccc1C(F)(F)F [Example 83, 1-((S)-hexan-2-yl)-3-((S)-(4-(trifluoro-methyl)-phenyl)(3-(trifluoro-methyl)-pyridin-2-yl)-methyl)urea (2,2,2-trifluoro-acetate)]"
2,3790 nM,"COc1ccc([C@@H](C)NC(=O)N[C@@H](c2ccc(C(F)(F)F)cc2)c2ncccc2C(F)(F)F)cc1 [Example 130, 1-((R)-1-(4-methoxy-phenyl)ethyl)-3-((S)-(4-(trifluoro-methyl)-phenyl)(3-(trifluoro-methyl)-pyridin-2-yl)-methyl)urea (2,2,2-trifluoro-acetate)]"
3,640 nM,"O=C(Nc1cnc2ccccc2c1)N[C@@H](c1ccc(C(F)(F)F)cc1)c1ncccc1C(F)(F)F [Example 59, (S)-1-(quinolin-3-yl)-3-((4-(trifluoro-methyl)-phenyl)(3-(trifluoro-methyl)-pyridin-2-yl)-methyl)urea]"
4,76 nM,"O=C(Nc1ccc[nH]c1=O)N[C@@H](c1ccc(C(F)(F)F)cc1)c1ncccc1F [Example 163, (S)-1-((3-fluoropyridin-2-yl)(4-(trifluoro-methyl)-phenyl)-methyl)-3-(2-oxo-1,2-dihydropyridin-3-yl)urea]"
5,3770 nM,"Cc1ccc(F)c(NC(=O)N[C@@H](c2ccc(C(F)(F)F)cc2)c2ncccc2C(F)(F)F)c1 [Example 146, (S)-1-(2-fluoro-5-methylphenyl)-3-((4-(trifluoro-methyl)-phenyl)(3-(trifluoro-methyl)-pyridin-2-yl)-methyl)urea (2,2,2-trifluoro-acetate)]"
6,299 nM,"CC(C)(C)OC(=O)N[C@@H](c1ccc(C(F)(F)F)cc1)c1ncccc1Br [Example 173, (S)-tert-Butyl((3-bromopyridin-2-yl)(4-(trifluoromethyl)-phenyl)methyl)carbamate]"
7,167 nM,"O=C(Nc1cncnc1)N[C@@H](c1ccc(C(F)(F)F)cc1)c1ncccc1C(F)(F)F [Example 57, (S)-1-(pyrimidin-5-yl)-3-((4-(trifluoro-methyl)-phenyl)(3-(trifluoro-methyl)-pyridin-2-yl)-methyl)urea]"
8,829 nM,"O=C(NCc1ccc(Cl)cc1Cl)N[C@@H](c1ccc(C(F)(F)F)cc1)c1ncccc1C(F)(F)F [Example 135, (S)-1-(2,4-dichlorobenzyl)-3-((4-(trifluoro-methyl)-phenyl)(3-(trifluoro-methyl)-pyridin-2-yl)-methyl)urea (2,2,2-trifluoro-acetate)]"
9,15 nM,"O=C(Nc1cccnc1)N[C@@H](c1ccc(OC(F)(F)F)cc1)c1ncccc1F [Example 15, (S)-1-((3-fluoropyridin-2-yl)(4-(trifluoro-methoxy)-phenyl)-methyl)-3-(pyridin-3-yl)-urea]"
10,209 nM,"O=C(Nc1c(F)cccc1F)N[C@@H](c1ccc(C(F)(F)F)cc1)c1ncccc1C(F)(F)F [Example 50, (S)-1-(2,6-difluoro-phenyl)-3-((4-(trifluoro-methyl)-phenyl)(3-(trifluoro-methyl)-pyridin-2-yl)-methyl)urea]"
11,666 nM,"CC(C)(C)CC(C)(C)NC(=O)N[C@@H](c1ccc(C(F)(F)F)cc1)c1ncccc1C(F)(F)F [Example 131, (S)-1-((4-(trifluoro-methyl)-phenyl)(3-(trifluoro-methyl)-pyridin-2-yl)-methyl)-3-(2,4,4-trimethylpentan-2-yl)urea (2,2,2-trifluoro-acetate)]"
12,172 nM,"O=C(Nc1cccnc1)N[C@@H](c1cccc(Cl)c1)c1ncccc1C(F)(F)F [Example 3, (S)-1-((3-chlorophenyl)-(3-(trifluoro-methyl)-pyridin-2-yl)-methyl)-3-(pyridin-3-yl)-urea]"
13,3560 nM,"N#Cc1ccc(NC(=O)N[C@@H](c2ccc(C(F)(F)F)cc2)c2ncccc2C(F)(F)F)cc1 [Example 46, (S)-1-(4-cyanophenyl)-3-((4-(trifluoro-methyl)-phenyl)(3-(trifluoro-methyl)-pyridin-2-yl)-methyl)urea]"
14,31 nM,"CC(=O)c1cccc(NC(=O)N[C@@H](c2ccc(C(F)(F)F)cc2)c2ncccc2C(F)(F)F)c1 [Example 86, (S)-1-(3-acetylphenyl)-3-((4-(trifluoro-methyl)-phenyl)(3-(trifluoro-methyl)-pyridin-2-yl)-methyl)urea (2,2,2-trifluoro-acetate)]"
15,3210 nM,"O=C(Nc1ccc(=O)[nH]c1)N[C@@H](c1ccc(C(F)(F)F)cc1)c1ncccc1F [Example 165, (S)-1-((3-fluoropyridin-2-yl)(4-(trifluoro-methyl)-phenyl)-methyl)-3-(6-oxo-1,6-dihydropyridin-3-yl)urea]"
16,154 nM,"O=C(Nc1cccnc1)N[C@@H](c1ccc(C(F)(F)F)cc1)c1ccccc1Br [Example 115, (S)-1-((2-bromophenyl) (4-(trifluoro-methyl)-phenyl)-methyl)-3-(pyridin-3-yl)-urea 2,2,2-trifluoro-acetate (2,2,2-trifluoro-acetate)]"

row,IC50,SMILES
1,199 nM,"O=C(NCc1ccccc1F)N[C@@H](c1ccc(C(F)(F)F)cc1)c1ncccc1C(F)(F)F [Example 87, (S)-1-(2-fluorobenzyl)-3-((4-(trifluoro-methyl)-phenyl)(3-(trifluoro-methyl)-pyridin-2-yl)-methyl)urea (2,2,2-trifluoro-acetate)]"
2,330 nM,"CCc1cccc(C)c1NC(=O)N[C@@H](c1ccc(C(F)(F)F)cc1)c1ncccc1C(F)(F)F [Example 89, (S)-1-(2-ethyl-6-methylphenyl)-3-((4-(trifluoro-methyl)-phenyl)(3-(trifluoro-methyl)-pyridin-2-yl)-methyl)urea (2,2,2-trifluoro-acetate)]"
3,1300 nM,"Cc1ccc([N+](=O)[O-])c(NC(=O)N[C@@H](c2ccc(C(F)(F)F)cc2)c2ncccc2C(F)(F)F)c1 [Example 143, (S)-1-(5-methyl-2-nitrophenyl)-3-((4-(trifluoro-methyl)-phenyl)(3-(trifluoro-methyl)-pyridin-2-yl)-methyl)urea (2,2,2-trifluoro-acetate)]"
4,107 nM,"CC#Cc1cccnc1[C@@H](NC(=O)NC(C)(C)C)c1ccc(C(F)(F)F)cc1 [Example 42, (S)-1-(tert-butyl)-3-((3-(prop-1-yn-1-yl)pyridin-2-yl)(4-(trifluoro-methyl)-phenyl)-methyl)urea]"
5,175 nM,"O=C(Nc1cccs1)N[C@@H](c1ccc(C(F)(F)F)cc1)c1ncccc1C(F)(F)F [Example 113, (S)-1-(thiophen-2-yl)-3-((4-(trifluoro-methyl)-phenyl)(3-(trifluoro-methyl)-pyridin-2-yl)-methyl)urea (2,2,2-trifluoro-acetate)]"
6,84 nM,"O=C(Nc1cccnc1)N[C@@H](c1ccc(C(F)(F)F)c(F)c1)c1ccccc1C(F)(F)F [Example 121, (S)-1-((3-fluoro-4-(trifluoro-methyl)-phenyl)(2-(trifluoro-methyl)-phenyl)-methyl)-3-(pyridin-3-yl)-urea]"
7,708 nM,"O=C(Nc1cccc(I)c1)N[C@@H](c1ccc(C(F)(F)F)cc1)c1ncccc1C(F)(F)F [Example 124, (S)-1-(3-iodophenyl)-3-((4-(trifluoro-methyl)-phenyl)(3-(trifluoro-methyl)-pyridin-2-yl)-methyl)urea (2,2,2-trifluoro-acetate)]"
8,4050 nM,"COC(=O)[C@H](Cc1ccccc1)NC(=O)N[C@@H](c1ccc(C(F)(F)F)cc1)c1ncccc1C(F)(F)F [Example 136, (S)-methyl 3-phenyl-2-(3-((S)-(4-(trifluoro-methyl)-phenyl)(3-(trifluoro-methyl)-pyridin-2-yl)-methyl)-ureido)-propanoate (2,2,2-trifluoro-acetate)]"
9,22 nM,"C=CCc1cccnc1[C@@H](NC(=O)Nc1cccnc1)c1ccc(C(F)(F)F)cc1 [Example 43, (S)-1-((3-allylpyridin-2-yl)(4-(trifluoromethyl)phenyl)-methyl)-3-(pyridin-3-yl)urea]"
10,4080 nM,"O=C(Nc1cccc(Br)c1)N[C@@H](c1ccc(C(F)(F)F)cc1)c1ncccc1C(F)(F)F [Example 37, (S)-1-(3-bromophenyl)-3-((4-(trifluoro-methyl)-phenyl)(3-(trifluoro-methyl)-pyridin-2-yl)-methyl)urea (2,2,2-trifluoro-acetate)]"
11,646 nM,"CCOC(=O)c1cccc(NC(=O)N[C@@H](c2ccc(C(F)(F)F)cc2)c2ncccc2C(F)(F)F)c1 [Example 90, (S)-ethyl 3-(3-((4-(trifluoro-methyl)-phenyl)(3-(trifluoro-methyl)-pyridin-2-yl)-methyl)-ureido)-benzoate (2,2,2-trifluoro-acetate)]"
12,360 nM,"O=C(N[C@@H](c1ccc(C(F)(F)F)cc1)c1ccccn1)OCc1ccccc1 [Example 172, (S)-Benzyl(pyridin-2-yl(4-(trifluoromethyl)phenyl)methyl)-carbamate 2,2,2-trifluoroacetate]"
13,190 nM,"CC(C)(C)NC(=S)N[C@@H](c1ccc(C(F)(F)F)cc1)c1ncccc1C(F)(F)F [Example 123, (S)-1-tert-butyl-3-((4-(trifluoro-methyl)-phenyl)(3-(trifluoro-methyl)-pyridin-2-yl)-methyl)-thiourea]"
14,352 nM,"O=C(NC(=O)c1ccccc1)N[C@@H](c1ccc(C(F)(F)F)cc1)c1ncccc1C(F)(F)F [Example 67, (S)-N-((4-(trifluoro-methyl)-phenyl)(3-(trifluoro-methyl)-pyridin-2-yl)-methylcarbamoyl) benzamide (2,2,2-trifluoro-acetate)]"
15,66 nM,"CC(C)NC(=O)N[C@@H](c1ccc(C(F)(F)F)cc1)c1ncccc1C(F)(F)F [Example 32, (S)-1-isopropyl-3-((4-(trifluoro-methyl)-phenyl)(3-(trifluoro-methyl)-pyridin-2-yl)-methyl)urea]"
16,4060 nM,"COc1cccc([C@@H](C)NC(=O)N[C@@H](c2ccc(C(F)(F)F)cc2)c2ncccc2C(F)(F)F)c1 [Example 128, 1-((R)-1-(3-methoxy-phenyl)ethyl)-3-((S)-(4-(trifluoro-methyl)-phenyl)(3-(trifluoro-methyl)-pyridin-2-yl)-methyl)urea (2,2,2-trifluoro-acetate)]"
